{
  "source": "patent US20260262632A1",
  "about": "“COMPOSITIONS AND METHODS FOR TANK-MIX SPRAY APPLICATION OF 1-MCP” (AGROFRESH INC., priority 2023, published 2026)",
  "origin": "cited, not measured here",
  "data": [
    {"smiles": "CC1=CC1", "note": "[1-MCP, 1-Methylcyclopropene]", "values": [
      {"measurement": "concentration above which gaseous 1-MCP is flammable", "result": "> 13,300 ppm"}
    ]}
  ]
}
